# Results: patent publication US5049372A, “Anticancer activities in a host by increasing blood and plasma adenosine 5'-triphosphate (ATP) levels” (priority 1988, dated 1991)
# Where a name gives a salt, the structure may show the parent alone.
# Experiments:
# [1] = tested on: blood plasma phosphodiesterase; settings: anticoagulant; chelation of divalent cations; cited from earlier work
# human subjects = settings: single rapid injections of 40 mg, intravenous or intra-arterial; cited from earlier work
# tumor-bearing hosts = settings: literature; cited from earlier work
# CAPAN-1 xenografts = assay: Arrest of growth of CAPAN-1 xenografts in athymic nu/nu mice (Table 2); format: in vivo, human; settings: experiment 5, 10 F, 0.5 × 10^5 cells, 9 weeks, 1 ml of 50 mM i.p.
# Protocol: (§1) The tumor cell lines employed were CT26, a mouse undifferentiated, aggressive colon carcinoma, and CAPAN-1, a well-differentiated human pancreatic adenocarcinoma. […] The cells are shown to be free of Mycoplasma contamination. Cells are cultured at 37° C. in a humidified atmosphere of 5% CO2 /95% air in MEM supplemented with antibiotics (100 units of penicillin per ml and 100 μg streptomycin per ml), L-glutamine (2 mM), non-essential amino acids (0.1 mM), sodium pyruvate (1 mM), and 10% fetal bovine serum.
# (§2) In the tests, females and males CB6F1 mice (a standard F1 hybrid of BALB/C and C57BL/6) obtained from Jackson Laboratories, Bar Harbor, Maine and athymic outbred NCr nu/nu mice (males and females) from the Department of Radiation Medicine, Massachusetts General Hospital, Boston, Mass. 02114 are used. All the mice are kept for at least two weeks before inoculation of the tumors and the start of treatment and are 7-9 weeks old (CB6F1) or 6-7 weeks old (athymic nu/nu) at the start of the procedure. Animals weigh 20-25 g (females) or 23-28 g (males), are housed 5-12 per cage, and have ad libitum access to food and water.
# (§3) Tumor cells are removed from subconfluent cultures by a mild trypsin-EDTA treatment, the cell pellet is washed once with MEM without serum and the cells are suspended at the desired cell numbers in PBS (phosphate-bufferedsaline, 8 g NaCl, 0.2 g KCl, 1.15 g Na2 HPO4.7H2 O, and 0.2 g KH2 PO4 per liter). Cell suspensions are shown to be at least 90% viable by trypan blue exclusion. Mice are injected subcutaneously in the right hind footpad with tumor cells suspended in 50 μl of PBS. The regular protocol (unless otherwise stated) consists of daily i.p. injections of 1 ml of 0.85% NaCl solution or 1 ml of 50 mM of AMP, ADP, or ATP in 0.85% NaCl (from stock solutions adjusted to pH 6.2) starting one day after tumor inoculation and given for ten consecutive days.
# (§4) Injections are administered with 30 gauge needles and the mice are lightly anesthetized with ether. The mice are weighed before the start of treatment and once a week during and after treatment. After the tumors become palpable, tumor sizes are determined every three days. The animals are sacrificed, tumors are excised and weighed before they reach 10% of the animals' weight.
# The effects of AMP, ADP, and ATP on human tumor xenografts in nude mice were evaluated utilizing the pancreatic ductal adenocarcinoma CAPAN-1 (see Kyriazis AP, Kyriazis AA, Scarpelli DG, Fogh J, Rao SM, Lepera R., "Human Pancreatic Adenocarcinoma Line CAPAN-1 in Tissue Culture and the Nude Mouse", Am. J. Pathol., 1982, 106, 250-260).
# Treatment schedules consist of single daily i.p. injections for 10 consecutive days, starting one day after tumor inoculation. Tumor burden is relatively low (0.5-1×10^5 cells implanted) and tumor growth is slow (tumors became palpable 4-6 weeks after inoculation).
# [2] = ATP levels in mouse blood (total cellular) and plasma after i.p. injection (Table 3); format: in vivo; settings: CB6F1; for Blood ATP levels: total cellular
# Protocol: The mice are anesthetized with ether during the procedure. The plasma is prepared by immediate centrifugation of the blood in a Beckman microfuge (30 sec at 8000 xg). Blood (20 μl) or plasma (100 μl) aliquots are added to 1 ml of cold 7% trichloroacetic acid. […] The determination of ATP levels in the extracts is performed by bioluminometry (luciferinluciferase) using a Turner Designs Bioluminescence Photometer.
# [3] = Host toxicity (deaths, body weight) in treated mice; format: in vivo, mouse; settings: i.p. injections of adenine nucleotides
# Protocol: as §3, §4
# tumor cells = settings: low doses; prior application Ser. No. 397,897; cited from earlier work
# CT26 tumors = assay: Growth inhibition of s.c. footpad CT26 tumors in CB6F1 mice by daily i.p. adenine nucleotides (Table 1); format: in vivo, mouse; settings: 0.5 × 10^6 cells, 1 ml of 50 mM i.p. daily
# Protocol: as §1, §2, §3, §4
# The growth inhibitory properties of adenine nucleotides against CT26 murine colon carcinoma, which are inoculated s.c. in the hind footpad of CB6F1 mice, are illustrated in Table 1 hereinbelow. […] No significant differences between males and females are observed either in the rate of tumor growth or in the tumor's response to adenine nucleotides treatment.
# [4] = 1 hour after i.p. 1 ml of 50 mM
# [5] = 5 hours after i.p. 1 ml of 50 mM
# [6] = experiment 3, 12 M per group, day 13
# [7] = experiment 4, 11 F per group, day 14
compound,measurement,setting,value
O=C(O)CC(O)(CC(=O)O)C(=O)O [Citrate],Inhibition of blood plasma phosphodiesterase activity,[1],inhibit the activity of a blood plasma phosphodiesterase
"Nc1ncnc2c1ncn2[C@@H]1O[C@H](COP(=O)(O)OP(=O)(O)OP(=O)(O)O)[C@@H](O)[C@H]1O [sodium salt of ATP, reference compound]",Subjective and physiological changes in human subjects,human subjects,small subjective and physiological changes in human subjects
insulin: the anabolic hormone insulin,Effect against rapid weight losses in tumor-bearing hosts,tumor-bearing hosts,effective against rapid weight losses in tumor-bearing hosts
same,Effect on growth of the tumor itself,tumor-bearing hosts,do not inhibit the growth of the tumor itself
"Nc1ncnc2c1ncn2[C@@H]1O[C@H](COP(=O)(O)OP(=O)(O)O)[C@@H](O)[C@H]1O [ADP, adenosine 5'-diphosphate]",Arrested tumors/implanted tumors,CAPAN-1 xenografts,6/10
same,Plasma ATP levels,[2]; [4],2.66 ± 0.46 µM
same,Blood ATP levels,[2]; [4],1.28 ± 0.30 mM
same,Plasma ATP levels,[2]; [5],2.75 ± 0.87 µM
same,Blood ATP levels,[2]; [5],1.65 ± 0.41 mM
same,Deaths,[3],"Occasionally, an animal treated with ATP or ADP would die a few hours after injection"
same,Effect on growth of tumor cells in vitro (in words),tumor cells,marked inhibition of DNA synthesis and arrest of significant populations of cells in the S phase of their cycle
same,Tumor diameter,CT26 tumors; [6],1.3 ± 0.2 cm
same,Tumor weight,CT26 tumors; [6],0.73 ± 0.23 g
same,Tumor diameter,CT26 tumors; [7],1.1 ± 0.2 cm
same,Tumor weight,CT26 tumors; [7],0.86 ± 0.27 g
